Data as given in patent US9926330B2, “Inhibitors of IRAK4 activity” (MERCK SHARP & DOHME CORP., priority 2014, dated 2018).

Biological target: GST tagged IRAK4 (Homo sapiens (Human), UniProt Q9NWZ3)
Test: IRAK4 Kinase Assay (IMAP fluorescence polarization)
Type: biochemical
Conditions: 0.5 nM GST tagged IRAK4, 100 nM fluorescent peptide substrate RP7030, 100 μM ATP, 30 minutes at 25° C., IMAP FP readout
Experimental: The kinase activity of IRAK4 is determined by its ability to catalyze the phosphorylation of a fluorescent polypeptide substrate. The extent of phosphorylation is measured using the IMAP technology (Molecular Devices) where the phosphorylated fluorescent substrate binds to the large M(III)-based nanoparticles which reduces the rotational speed of the substrate and thus increases its fluorescent polarization (FP).
20 μL reaction mixture contains 10 mM TriHCl, pH 7.2, 0.5 nM GST tagged IRAK4 (SignalChem), 100 nM fluorescent peptide substrate (RP7030, Molecular Devices), 100 μM ATP, 1 mM DDT, 1 mM MgCl2, and 0.01% Tween 20. The reaction is initiated by the addition of ATP. After incubation for 30 minutes at 25° C., 60 μL of Progressive IMAP Reagent (Molecular Devices) is added to stop the reaction. Change in RP7030's FP is determined by a FP reader (Analyst HT, LJL BioSystems).

Sequence of GST tagged IRAK4 (Q9NWZ3 whole entry): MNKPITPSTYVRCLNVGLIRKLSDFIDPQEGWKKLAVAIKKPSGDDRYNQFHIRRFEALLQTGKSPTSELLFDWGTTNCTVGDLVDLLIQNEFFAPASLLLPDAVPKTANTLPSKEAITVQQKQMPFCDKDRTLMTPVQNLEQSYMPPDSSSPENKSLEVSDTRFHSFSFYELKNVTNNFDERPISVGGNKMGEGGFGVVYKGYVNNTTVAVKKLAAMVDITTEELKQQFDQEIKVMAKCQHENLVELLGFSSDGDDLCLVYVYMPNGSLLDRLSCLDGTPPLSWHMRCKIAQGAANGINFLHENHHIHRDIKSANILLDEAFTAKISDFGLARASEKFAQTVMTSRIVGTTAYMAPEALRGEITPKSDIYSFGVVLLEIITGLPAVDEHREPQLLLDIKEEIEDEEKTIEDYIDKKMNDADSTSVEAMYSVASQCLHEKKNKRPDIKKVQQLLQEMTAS

Row | SMILES | IC50 [µM]
1 | Cc1ccc2ncnc(NC3CCC(N4CCC(C(F)(F)F)CC4)CC3)c2c1 (stereo not shown) [Example 2-12, 6-methyl-N-{4-[4-(trifluoromethyl)piperidin-1-yl]cyclohexyl}quinazolin-4-amine] | 9.38
2 | Cc1ccc2ncnc(NC3CCC(N4CCCC(C(F)(F)F)C4)CC3)c2c1 (stereo not shown) [Example 2-13, 6-methyl-N-{4-[3-(trifluoromethyl)piperidin-1-yl]cyclohexyl}quinazolin-4-amine] | 0.017
3 | Cc1ccc2ncnc(NC3CCC(N4CCCCC4C(F)(F)F)CC3)c2c1 (stereo not shown) [Example 2-14, 6-methyl-N-{4-[2-(trifluoromethyl)piperidin-1-yl]cyclohexyl}quinazolin-4-amine] | 3.23
4 | Cc1ccc2ncnc(NC3CCC(N4CCCCC4C(F)(F)F)CC3)c2c1 (stereo not shown) [Example 2-15, 6-methyl-N-{4-[2-(trifluoromethyl)piperidin-1-yl]cyclohexyl}quinazolin-4-amine] | 1.76
5 | Cc1ccc2ncnc(NC3CCC(N4CCCC(C(F)(F)F)C4)CC3)c2c1 (stereo not shown) [Example 2-16, 6-methyl-N-{4-[3-(trifluoromethyl)piperidin-1-yl]cyclohexyl}quinazolin-4-amine] | 0.269
6 | Cc1ccc2ncnc(N[C@H]3CC[C@H](NC4CCOCC4)CC3)c2c1 [Example 2-17, (trans)-N1-(6-methylquinazolin-4-yl)-N4-(tetrahydro-2H-pyran-4-yl)cyclohexane-1,4-diamine] | 0.077
7 | Cc1ccc2ncnc(N[C@H]3CC[C@H](NCC4CCOCC4)CC3)c2c1 [Example 2-18, trans-N-(6-methylquinazolin-4-yl)-N′-(tetrahydro-2H-pyran-4-ylmethyl)cyclohexane-1,4-diamine] | 0.046
8 | Cc1ccc2ncnc(N[C@H]3CC[C@H](N[C@H]4CCOC(C)(C)C4)CC3)c2c1 [Example 2-19, trans-N-[(4S)-2,2-dimethyltetrahydro-2H-pyran-4-yl]-N′-(6-methylquinazolin-4-yl)cyclohexane-1,4-diamine] | 0.054
9 | Cc1ccc2ncnc(N[C@H]3CC[C@H](NCc4cccs4)CC3)c2c1 [Example 2-20, trans-N-(6-methylquinazolin-4-yl)-N′-(thiophen-2-ylmethyl)cyclohexane-1,4-diamine] | 0.045
10 | Cc1ccc2ncnc(N[C@H]3CC[C@H](N[C@@H](C)C4CC4)CC3)c2c1 [Example 2-21, trans-N-[(1S)-1-cyclopropylethyl]-N′-(6-methylquinazolin-4-yl)cyclohexane-1,4-diamine] | 0.073
11 | Cc1ccc2ncnc(N[C@H]3CC[C@H](N[C@@H](C)CC(F)(F)F)CC3)c2c1 [Example 2-22, trans-N-(6-methylquinazolin-4-yl)-N′-[(1S)-3,3,3-trifluoro-1-methylpropyl]cyclohexane-1,4-diamine] | 0.067
12 | Cc1ccc2ncnc(N[C@H]3CC[C@H](N[C@@H](C)C(C)(C)O)CC3)c2c1 [Example 2-23, (3S)-2-methyl-3-({trans-4-[(6-methylquinazolin-4-yl)amino]cyclohexyl}amino)butan-2-ol] | 0.123
13 | Cc1ccc2ncnc(N[C@H]3CC[C@H](NC(C)C)CC3)c2c1 [Example 2-24, trans-N-(1-methylethyl)-N′-(6-methylquinazolin-4-yl)cyclohexane-1,4-diamine] | 0.044
14 | Cc1ccc2ncnc(N[C@H]3CC[C@H](NCC4CC4)CC3)c2c1 [Example 2-25, trans-N-(cyclopropylmethyl)-N′-(6-methylquinazolin-4-yl)cyclohexane-1,4-diamine] | 0.031
15 | Cc1ccc2ncnc(N[C@H]3CC[C@H](NCc4ccnn4C)CC3)c2c1 [Example 2-26, trans-N-[(1-methyl-1H-pyrazol-5-yl)methyl]-N′-(6-methylquinazolin-4-yl)cyclohexane-1,4-diamine] | 0.047
16 | Cc1ccc2ncnc(N[C@H]3CC[C@H](NCC4(C)COC4)CC3)c2c1 [Example 2-27, trans-N-[(3-methyloxetan-3-yl)methyl]-N′-(6-methylquinazolin-4-yl)cyclohexane-1,4-diamine] | 0.077
